What was measured:
CDK6/Cyclin D1 = CDK6/Cyclin D1 (Homo sapiens (Human), UniProt Q00534); assay: biochemical; conditions: CDK6_Ki (nM), non-phosphorylated CDK6/Cyclin D1, 2 mM ATP, Morrison fit
CDK2/Cyclin E1 = CDK2/Cyclin E1 (Homo sapiens (Human), UniProt P24941); assay: biochemical; conditions: CDK2_Ki (nM), phosphorylated CDK2/Cyclin E1, 150 μM ATP, Morrison tight-binding fit
Procedure: The assay was initiated with the addition of ATP, following a fifteen minutes pre-incubation of enzyme and inhibitor at room temperature in the reaction mixture. The reaction was stopped after 45 minutes at room temperature by the addition of 50 μL of 80 mM EDTA, pH 7.5.

Chain of CDK6/Cyclin D1 (Q00534 whole entry): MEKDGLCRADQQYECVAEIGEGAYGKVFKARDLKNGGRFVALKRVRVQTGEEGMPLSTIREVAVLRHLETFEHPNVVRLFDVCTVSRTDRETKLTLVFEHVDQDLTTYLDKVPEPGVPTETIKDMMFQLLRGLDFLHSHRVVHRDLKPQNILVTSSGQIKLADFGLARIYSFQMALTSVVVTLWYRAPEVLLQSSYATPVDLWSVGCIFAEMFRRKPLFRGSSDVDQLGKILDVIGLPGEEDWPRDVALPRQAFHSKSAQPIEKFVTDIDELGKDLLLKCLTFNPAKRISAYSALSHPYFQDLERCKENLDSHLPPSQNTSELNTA
Chain of CDK6/Cyclin D1 (P24385 whole entry partner): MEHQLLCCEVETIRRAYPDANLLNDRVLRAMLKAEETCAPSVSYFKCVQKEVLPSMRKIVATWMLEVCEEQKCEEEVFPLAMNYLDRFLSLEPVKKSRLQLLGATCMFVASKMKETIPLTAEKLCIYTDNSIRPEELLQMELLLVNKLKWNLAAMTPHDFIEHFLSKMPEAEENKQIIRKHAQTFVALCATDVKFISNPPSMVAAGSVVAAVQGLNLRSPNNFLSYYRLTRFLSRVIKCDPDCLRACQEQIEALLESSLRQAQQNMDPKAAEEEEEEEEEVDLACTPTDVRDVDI

Ki (CDK6/Cyclin D1) [nM] | Ki (CDK2/Cyclin E1) [nM] | SMILES
0.53 | 1.25 | CS(=O)(=O)N1CCC(Nc2ncc3cc(C(F)F)c(=O)n([C@H]4CC[C@H](O)C4)c3n2)CC1 (relative stereo) [Example 134, (+)-6-(difluoromethyl)-8-[(1R*,3R*)-3-hydroxycyclopentyl]-2-{[1-(methylsulfonyl)piperidin-4-yl]amino}pyrido[2,3-d]pyrimidin-7(8H)-one]
2.65 | 1.51 | CS(=O)(=O)N1CCC(Nc2ncc3cc(CCO)c(=O)n(C4CCCCCC4)c3n2)CC1 [Example 165, 8-cycloheptyl-6-(2-hydroxyethyl)-2-{[1-(methylsulfonyl)piperidin-4-yl]amino}-pyrido[2,3-d]pyrimidin-7(8H)-one]
0.45 | 1.57 | CS(=O)(=O)N1CCC(Nc2ncc3cc(CC(=O)O)c(=O)n(C4CCCC4)c3n2)CC1 [Example 147, (8-cyclopentyl-2-{[1-(methylsulfonyl)piperidin-4-yl]amino}-7-oxo-7,8-dihydropyrido[2,3-d]pyrimidin-6-yl)acetic acid]
2.72 | 3.01 | C[C@]1(O)CCC[C@@H]1n1c(=O)ccc2cnc(NC3CCN(S(=O)(=O)CC4CC4)CC3)nc21 (single isomer, unassigned) [Example 91, (+)-2-({1-[(cyclopropylmethyl)sulfonyl]piperidin-4-yl}amino)-8-[(1R*,2R*)-2-hydroxy-2-methylcyclopentyl]pyrido[2,3-d]pyrimidin-7(8H)-one]
1.1 | 1.51 | CNS(=O)(=O)N1CCC(Nc2ncc3cc(CCO)c(=O)n(C4CCCC4)c3n2)CC1 [Example 146, 4-{[8-cyclopentyl-6-(2-hydroxyethyl)-7-oxo-7,8-dihydropyrido[2,3-d]pyrimidin-2-yl]amino}-N-methylpiperidine-1-sulfonamide]
11.8 | 1.46 | C[C@]1(O)CCC[C@@H]1n1c(=O)ccc2cnc(NC3CCN(S(N)(=O)=O)CC3)nc21 (single isomer, unassigned) [Example 184, (+)-4-({8-[(1R*,2R*)-2-hydroxy-2-methylcyclopentyl]-7-oxo-7,8-dihydropyrido[2,3-d]pyrimidin-2-yl}amino)piperidine-1-sulfonamide]
0.34 | 1.35 | CS(=O)(=O)N1CCC(Nc2ncc3cc(C(F)F)c(=O)n(C4CCCC4)c3n2)CC1 [Example 30, 8-cyclopentyl-6-(difluoromethyl)-2-{[1-(methylsulfonyl)piperidin-4-yl]amino}pyrido[2,3-d]pyrimidin-7(8H)-one]
3.55 | 4.07 | CS(=O)(=O)N1CC[C@H](Nc2ncc3cc(CC(N)=O)c(=O)n(C4CCCC4)c3n2)[C@@H](F)C1 (single isomer, unassigned) [Example 160, (−)-2-(8-cyclopentyl-2-{[(3S*,4S*)-3-fluoro-1-(methylsulfonyl)piperidin-4-yl]amino}-7-oxo-7,8-dihydropyrido[2,3-d]pyrimidin-6-yl)acetamide]
4.36 | 0.34 | Cc1cc2cnc(NC3CCN(S(=O)(=O)CC(F)(F)F)CC3)nc2n([C@@H]2CCC[C@@]2(C)O)c1=O (single isomer, unassigned) [Example 118, (−)-8-[(1R*,2R*)-2-hydroxy-2-methylcyclopentyl]-6-methyl-2-({1-[(2,2,2-trifluoroethyl)sulfonyl]piperidin-4-yl}amino)pyrido[2,3-d]pyrimidin-7(8H)-one]
0.36 | 0.48 | C[C@@H]1CCC[C@@H]1n1c(=O)c(CCO)cc2cnc(NC3CCN(S(C)(=O)=O)CC3)nc21 [Example 41, 6-(2-hydroxyethyl)-8-[(1S,2R)-2-methylcyclopentyl]-2-{[1-(methylsulfonyl)piperidin-4-yl]amino}pyrido[2,3-d]pyrimidin-7(8H)-one]
4.72 | 9.51 | Cc1cc2cnc(NC3CCN(S(C)(=O)=O)CC3)nc2n([C@H]2C[C@@H](O)C[C@H]2C)c1=O (single isomer, unassigned) [Example 200, (+)-8-[(1R*,2S*,4R*)-4-hydroxy-2-methylcyclopentyl]-6-methyl-2-{[1-(methylsulfonyl)piperidin-4-yl]amino}pyrido[2,3-d]pyrimidin-7(8H)-one]
0.62 | 0.78 | CNS(=O)(=O)N1CCC(Nc2ncc3cc(C)c(=O)n(C4CCCC4)c3n2)CC1 [Example 23, 4-[(8-cyclopentyl-6-methyl-7-oxo-7,8-dihydropyrido[2,3-d]pyrimidin-2-yl)amino]-N-methylpiperidine-1-sulfonamide]
3.79 | 1.09 | CS(=O)(=O)N1CCC(Nc2ncc3ccc(=O)n([C@H]4CC[C@H](O)C4)c3n2)CC1 (single isomer, unassigned) [Example 53, (+)-8-[(1R*,3R*)-3-hydroxycyclopentyl]-2-{[1-(methylsulfonyl)piperidin-4-yl]amino}pyrido[2,3-d]pyrimidin-7(8H)-one]
7.29 | – | CS(=O)(=O)N1CC[C@@H](Nc2ncc3cc(N)c(=O)n(C4CCCC4)c3n2)[C@@H](F)C1 (single isomer, unassigned; isomer a) [Example 151, 6-amino-8-cyclopentyl-2-{[(3R*,4S*)-3-fluoro-1-(methylsulfonyl)piperidin-4-yl]amino}pyrido[2,3-d]pyrimidin-7(8H)-one-Isomer A]
2.23 | – | CS(=O)(=O)N1CC[C@@H](Nc2ncc3cc(Cl)c(=O)n(C4CCCC4)c3n2)[C@@H](F)C1 (single isomer, unassigned) [Example 153, (+)-6-chloro-8-cyclopentyl-2-{[(3R*,4S*)-3-fluoro-1-(methylsulfonyl)piperidin-4-yl]amino}pyrido[2,3-d]pyrimidin-7(8H)-one]
2.26 | – | CS(=O)(=O)N1CC[C@@H](Nc2ncc3cc(Cl)c(=O)n(C4CCCC4)c3n2)[C@H](F)C1 (single isomer, unassigned) [Example 155, (+)-6-chloro-8-cyclopentyl-2-{[(3S*,4S*)-3-fluoro-1-(methylsulfonyl)piperidin-4-yl]amino}pyrido[2,3-d]pyrimidin-7(8H)-one]
0.27 | – | CS(=O)(=O)N1CC[C@H](Nc2ncc3cc(Cl)c(=O)n(C4CCCC4)c3n2)[C@@H](F)C1 (single isomer, unassigned) [Example 154, (−)-6-chloro-8-cyclopentyl-2-{[(3S*,4S*)-3-fluoro-1-(methylsulfonyl)piperidin-4-yl]amino}pyrido[2,3-d]pyrimidin-7(8H)-one]
– | 3.46 | Cc1cc2cnc(NC3CCN(S(=O)(=O)NC[C@H]4CCCO4)CC3)nc2n([C@H]2CCC[C@]2(C)O)c1=O (single isomer, unassigned) [Example 103, (+)-4-({8-[(1R*,2R*)-2-hydroxy-2-methylcyclopentyl]-6-methyl-7-oxo-7,8-dihydropyrido[2,3-d]pyrimidin-2-yl}amino)-N-[(2R)-tetrahydrofuran-2-ylmethyl]piperidine-1-sulfonamide]
– | 1.59 | Cc1cc2cnc(NC3CCN(S(=O)(=O)N(C)C)CC3)nc2n(C2CCCC2)c1=O [Example 24, 4-[(8-cyclopentyl-6-methyl-7-oxo-7,8-dihydropyrido[2,3-d]pyrimidin-2-yl)amino]-N,N-dimethylpiperidine-1-sulfonamide]
– | 36 | CS(=O)(=O)N1CC[C@@H](Nc2ncc3cc(CCO)c(=O)n(C4CCCC4)c3n2)[C@H](F)C1 (single isomer, unassigned) [Example 157, (+)-8-cyclopentyl-2-{[(3S*,4S*)-3-fluoro-1-(methylsulfonyl)piperidin-4-yl]amino}-6-(2-hydroxyethyl)pyrido[2,3-d]pyrimidin-7(8H)-one]
– | 1.56 | CNS(=O)(=O)N1CCC(Nc2ncc3cc(C)c(=O)n([C@H]4CCC[C@H]4C)c3n2)CC1 [Example 43, N-methyl-4-({6-methyl-8-[(1S,2R)-2-methylcyclopentyl]-7-oxo-7,8-dihydropyrido[2,3-d]pyrimidin-2-yl}amino)piperidine-1-sulfonamide]
0.43 | – | CS(=O)(=O)N1CC[C@H](Nc2ncc3cc(Cl)c(=O)n(C4CCCC4)c3n2)[C@H](F)C1 (single isomer, unassigned) [Example 152, (−)-6-chloro-8-cyclopentyl-2-{[(3R*,4S*)-3-fluoro-1-(methylsulfonyl)piperidin-4-yl]amino}pyrido[2,3-d]pyrimidin-7(8H)-one]
– | 3.85 | CN(C)S(=O)(=O)N1CCC(Nc2ncc3cc(CCO)c(=O)n(C4CCCC4)c3n2)CC1 [Example 27, 4-{[8-cyclopentyl-6-(2-hydroxyethyl)-7-oxo-7,8-dihydropyrido[2,3-d]pyrimidin-2-yl]amino}-N,N-dimethylpiperidine-1-sulfonamide]
– | 0.27 | Cc1cc2cnc(NC3CCN(S(=O)(=O)NC[C@@H]4CCCO4)CC3)nc2n([C@@H]2CCC[C@@]2(C)O)c1=O (single isomer, unassigned) [Example 100, (−)-4-({8-[(1R*,2R*)-2-hydroxy-2-methylcyclopentyl]-6-methyl-7-oxo-7,8-dihydropyrido[2,3-d]pyrimidin-2-yl}amino)-N-[(2S)-tetrahydrofuran-2-ylmethyl]piperidine-1-sulfonamide]
– | 12.4 | C[C@@H]1[C@H](n2c(=O)ccc3cnc(NC4CCN(S(C)(=O)=O)CC4)nc32)CC[C@@H]1O (single isomer, unassigned) [Example 208, (−)-8-[(1R*,2R*,3S*)-3-hydroxy-2-methylcyclopentyl]-2-{[1-(methylsulfonyl)piperidin-4-yl]amino}pyrido[2,3-d]pyrimidin-7(8H)-one]
– | 2.06 | C[C@H]1[C@@H](O)CCC[C@@H]1n1c(=O)ccc2cnc(NC3CCN(S(C)(=O)=O)CC3)nc21 (single isomer, unassigned) [Example 222, (+)-8-[(1S*,2R*,3S*)-3-hydroxy-2-methylcyclohexyl]-2-{[1-(methylsulfonyl)piperidin-4-yl]amino}pyrido[2,3-d]pyrimidin-7(8H)-one]

— US10233188B2, “CDK2/4/6 inhibitors” (priority 2016, dated 2019)
